# Laboratory results published in US20140329863A1 (priority 2011, published 2014).
# Read-outs that look alike come from different tables or passages of the source.
# What was measured:
# [1] = system: T98G cells; assay: cells; format: cell-based, human; details: for % Inhibition: Calcein (T98G): T98G cells
# [2] = system: PrP^C in T98G cells; format: cell-based, human
# [3] = Hepatic microsomal stability, human; details: human liver microsomes
# [4] = Hepatic microsomal stability, mouse; details: mouse liver microsomes
# [5] = system: PrP^C in IMR32 cells; format: cell-based, human
# [6] = system: IMR32 cells; format: cell-based, human
# [7] = system: PrP^Sc in dividing ScN2a-cl3 cells; format: cell-based, mouse; set-up: Dividing ELISA pEC50 (μM) 1st Expt. / Dividing ELISA pEC50 (μM) 2nd Expt. / Dividing ELISA pEC50 (μM) 3rd Expt. / Dividing ELISA pEC50 (μM) Mean: unit not given here
# [8] = system: PrP^Sc in dividing ScN2a-c13 cells; details: dividing ScN2a-c13 cells; for EC50: read-out: EC50 (ELISA), reduction of PrP^Sc load
# [9] = system: N2a-cl3 cells; assay: cells; details: Mus musculus, N2a-cl3, read-out: Dividing Calcein EC50 (μM) Mean (n = 3)
# [10] = system: PrP^Sc in nondividing ScN2a-cl3 cells; format: cell-based, mouse; details: read-out: Non-Dividing ELISA EC50 (μM) Mean (n = 3); ScN2a-c13 non-dividing cells; mean n = 3
# [11] = ScN2a-cl3 dividing cells, 1st determination
# [12] = ScN2a-cl3 dividing cells, 2nd determination
# [13] = ScN2a-cl3 dividing cells, 3rd determination
# [14] = read-out: Dividing ELISA EC50 (μM) 1st Expt., ScN2a-cl3 dividing cells, 1st determination
# [15] = read-out: Dividing ELISA EC50 (μM) 2nd Expt., ScN2a-cl3 dividing cells, 2nd determination
# [16] = read-out: Dividing ELISA EC50 (μM) 3rd Expt., ScN2a-cl3 dividing cells, 3rd determination
# [17] = read-out: Dividing ELISA EC50 (μM) Mean, ScN2a-cl3 dividing cells, mean of three determinations
# [18] = ScN2a-cl3 dividing cells, mean of three determinations
SMILES,% Inhibition: Calcein (T98G) [1] [%],% Inhibition: SPC (T98G) [2],% Inhibition: SPC (IMR32) [5],% Inhibition: Calcein (IMR32) [6] [%],antiprion activity (in words) [8],"Dividing ELISA pEC50 (μM) 1st Expt. [7, 11]","Dividing ELISA pEC50 (μM) 2nd Expt. [7, 12]","Dividing ELISA pEC50 (μM) 3rd Expt. [7, 13]","EC50 [7, 14] [µM]","EC50 [7, 15] [µM]","EC50 [7, 16] [µM]","EC50 [7, 17] [µM]",EC50 [9] [µM],EC50 [10] [µM],melting point [°C],further results
O=C(Cc1ccc(-c2ccccc2)cc1)NCc1ccccc1 [IND116065],,,,,,,,,,,,,,,,"EC50 ([1]; Homo sapiens, T98G, read-out: EC50 (μM) Calcein): > 10 µM; Potency relative to the bromo analog (IND61769) [2]: 10 times; EC50 ([2]; read-out: EC50 (μM) ELISA): 0.267 µM; EC50 ([2]; read-out: EC50 (μM) ELISA potency, PrP^C in T98G cells): 0.233 µM; Hepatic Extraction Ratio Human ([3]; predicted hepatic extraction): 0.86; half-life at 1 μM ([3]; human, pH 7.4): 11.1 min; Hepatic Extraction Ratio Mouse ([4]; predicted hepatic extraction): 0.83; half-life at 1 μM ([4]; mouse, pH 7.4): 12.3 min"
COc1ccc(NC(=O)Nc2ccc(SC(F)(F)F)cc2)cc1 [IND-0002925],−10,MW: 342.3 % Inhibition: SPC (IMR32): 22 Calcein: 13 SPC (T98G): 62 Calcein: −10,MW: 342.3 % Inhibition: SPC (IMR32): 22 Calcein: 13 SPC (T98G): 62 Calcein: −10,13,,,,,,,,,,,,
CC(C)(C)NCC(O)COc1ccc(C23CC4CC(CC(C4)C2)C3)cc1 (centres unmarked) [IND-0003070],−13,MW: 285.4 % Inhibition: SPC (IMR32): 94 Calcein: 34 SPC (T98G): −55 Calcein: −13,MW: 285.4 % Inhibition: SPC (IMR32): 94 Calcein: 34 SPC (T98G): −55 Calcein: −13,34,,,,,,,,,,,,
COc1ccc(S(=O)(=O)Nc2cc(C)ccc2C)cc1 [IND-0007902],19,MW: 291.4 % Inhibition: SPC (IMR32): 38 Calcein: 36 SPC (T98G): 51 Calcein: 19,MW: 291.4 % Inhibition: SPC (IMR32): 38 Calcein: 36 SPC (T98G): 51 Calcein: 19,36,,,,,,,,,,,,
Cc1nc2sccn2c1-c1csc(Nc2ccc(N(C)C)cc2)n1 [IND-0009688],8,MW: 288.8 % Inhibition: SPC (IMR32): 66 Calcein: 38 SPC (T98G): 31 Calcein: 8,MW: 288.8 % Inhibition: SPC (IMR32): 66 Calcein: 38 SPC (T98G): 31 Calcein: 8,38,,,,,,,,,,,,
Cc1[nH]c2ccccc2c1-c1ccnc2ccccc12 [IND-0010878],25,MW: 318.4 % Inhibition: SPC (IMR32): 34 Calcein: 19 SPC (T98G): 64 Calcein: 25,MW: 318.4 % Inhibition: SPC (IMR32): 34 Calcein: 19 SPC (T98G): 64 Calcein: 25,19,,,,,,,,,,,,
Cc1cc(C)c(S(=O)(=O)NCc2ccccc2)c(C)c1 [IND-0014135],9,MW: 289.4 % Inhibition SPC (IMR32): 55 Calcein: 4 SPC (T98G): 39 Calcein: 9,MW: 289.4 % Inhibition SPC (IMR32): 55 Calcein: 4 SPC (T98G): 39 Calcein: 9,4,,,,,,,,,,,,
OCCNC1CCCc2c1[nH]c1ccc(Br)cc21 (centres unmarked) [IND-0015066],−27,MW: 309.2 % Inhibition: SPC (IMR32): 45 Calcein: 2 SPC (T98G): −11 Calcein: −27,MW: 309.2 % Inhibition: SPC (IMR32): 45 Calcein: 2 SPC (T98G): −11 Calcein: −27,2,,,,,,,,,,,,
CC(=O)N1CCc2c([nH]c3ccccc23)C1c1ccc(Cl)cc1 (centres unmarked) [IND-0017998],−19,MW: 324.8 % Inhibition: SPC (IMR32): 73 Calcein: 7 SPC (T98G): 74 Calcein: −19,MW: 324.8 % Inhibition: SPC (IMR32): 73 Calcein: 7 SPC (T98G): 74 Calcein: −19,7,,,,,,,,,,,,
CC(=O)c1ccc(NC(=O)c2sc3nc4c(cc3c2N)CCCC4)cc1 [IND-0024609],,,,,inactive,,,,,,,,,,,"EC50 ([7]; read-out: Antiprion activity EC50, thienopyridine analogs): > 10 µM"
"CNc1nc(-c2ccc(OC)c(OC)c2)cs1 [compound 5, 4-(3,4-dimethoxyphenyl)-N-methyl-1,3-thiazol-2-amine]",,,,,without significant activity,>4.5,>4.5,>4.5,> 32,> 32,> 32,> 32,> 32,> 32,120 to 123,
"COc1ccc(-c2csc(Nc3cccnc3)n2)cc1OC [compound 7, [4-(3,4-dimethoxyphenyl)-thiazol-2-yl]pyridin-3-yl-amine]",,,,,,5.85,5.94,5.96,1.41,1.16,1.1,1.22,> 32,> 32,251 to 254,"Dividing ELISA pEC50 (μM) Mean [7, 18]: 5.92; EC50 [8]: 1.22 µM"
"Cc1ccc(Nc2nc(C)cs2)nc1 [compound 29, (5-Methylpyridin-2-yl)-(4-methylthiazol-2-yl)-amine]",,,,,inactive,>4.5,>4.5,>4.5,> 32,> 32,> 32,> 32,> 32,> 32,212 to 214,
"COc1ccc(-c2csc(Nc3cc4ccccc4cn3)n2)cc1 [compound 30, Isoquinolin-3-yl-[4-(4-methoxyphenyl)-thiazol-2-yl]-amine]",,,,,,6.65,6.41,6.38,0.226,0.385,0.414,0.342,> 32,> 32,224 to 228,"Dividing ELISA pEC50 (μM) Mean [7, 18]: 6.48; EC50 [8]: 0.34 µM"
"FC(F)(F)Oc1ccc(-c2csc(Nc3cc4ccccc4cn3)n2)cc1 [compound 31, Isoquinolin-3-yl-[4-(4-trifluoromethoxyphenyl)-thiazol-2-yl]-amine]",,,,,inactive,>4.5,>4.5,>4.5,> 32,> 32,> 32,> 32,> 32,> 32,269 to 271,
"Cc1csc(Nc2cc3ccccc3cn2)n1 [compound 36, Isoquinolin-3-yl-(4-methylthiazol-2-yl)-amine]",,,,,inactive,>4.5,>4.5,>4.5,> 32,> 32,> 32,> 32,> 32,> 32,212 to 215,
"FC(F)(F)c1csc(Nc2cc3ccccc3cn2)n1 [compound 37, Isoquinolin-3-yl-(4-trifluoromethylthiazol-2-yl)-amine]",,,,,less potent,5.05,5.14,5.01,9,7.26,9.71,8.66,> 32,> 32,200 to 203,"Dividing ELISA pEC50 (μM) Mean [7, 18]: 5.07"
"COc1ccc(Nc2nc(-c3cc(-c4ccccc4)no3)cs2)nc1 [compound 40, (5-Methoxypyridin-2-yl)-[4-(3-phenylisoxazol-5-yl)-thiazol-2-yl]-amine]",,,,,,6.40,6.96,6.74,0.395,0.11,0.183,0.229,> 32,> 32,203 to 205,"Dividing ELISA pEC50 (μM) Mean [7, 18]: 6.70; EC50 [8]: 0.23 µM"
"COc1ccnc(Nc2nc(-c3cc(-c4ccccc4)no3)cs2)c1 [compound 41, (4-Methoxypyridin-2-yl)-[4-(3-phenylisoxazol-5-yl)-thiazol-2-yl]-amine]",,,,,,6.43,6.78,6.66,0.369,0.166,0.219,0.251,> 32,> 32,177 to 179,"Dividing ELISA pEC50 (μM) Mean [7, 18]: 6.62; EC50 [8]: 0.25 µM"
